Test results taken from patent US20230414715A1, “TRAIL COMPOUNDS FOR REDUCING CANCER TREAMENT SIDE EFFECTS” (BROWN UNIVERSITY, priority 2022, published 2023).

Tests used:
[1] = test system: lung tissue in irradiated C57B1/6 mice; test: Immunohistochemistry of irradiated lung tissue; format: in vivo, mouse
Source text: Paraffin embedded sections of tissue were deparaffinized in xylene and rehydrated through graded ethanol solutions to phosphate-buffered saline (PBS). Heat-induced antigen retrieval (in 0.01 M citrate buffer; pH 6.0), endogenous peroxidase blocking (3% H202), and blocking were done using a standard protocol. […] Slides were developed with diaminobenzidine substrate (Vector Laboratories SK-4100) and counterstained with hematoxylin (Richard Allen Scientific). Slides were scanned (Olympus VS200) and representative brightfield images were taken and analyzed with OlyVIA software.

[2] = test system: serum cytokines; test: Serum cytokine analysis (Luminex) of irradiated mice; format: in vivo, mouse; conditions: treated versus control
Method: (§1) Animal studies were carried out at Brown University facilities with approval from Brown University IACUC. C57B1/6 mice (Taconic), mice with bi-allelic loss of TRAIL Death Receptor-(DR5-/-) in a C57B1/6 background, and mice with bi-allelic loss of TRAIL (TRAIL -/-) in a C57B1/6 background were given a single whole-thorax x-ray (Philips RT250) irradiation dose of 20 Gy with shielding of other organs. 8-15-week-old male and female mice of each genotype were used. […] Treatment was continued for two weeks, where TLY012 was administered twice a week and ONC201 was administered once a week. For each genetic background, two mice received a control PO, two mice received TLY012 IP, and two mice received ONC201 PO. Mice were weighed twice a week, and 13 days post-irradiation all mice were euthanized. Organs were harvested from the mice and 600 μL of blood was collected via cardiac puncture for serum cytokine analysis. Organs were preserved in 10% formalin then embedded in paraffin and sectioned at a distance of 5 μm. […] TRAIL-/- female mice were also subjected to a survival study with a single whole-thorax radiation doses of 15 Gy or 18 Gy treated with the same regimen of TLY012 or control (n=2/radiation dose/treatment) (FIG. 3B). In order to determine the lethal dose of radiation for C57B1/6 mice, female C57B1/6 mice were treated with a single dose of whole-thorax irradiation of 25 Gy in a survival study where they were treated with either TLY012 or remained control (n=6/treatment) (FIG. 3C).
All mouse serum samples were analyzed by a custom R&D systems Murine Premixed Multi- Analyte Kit (R&D Systems, Inc., Minneapolis, MN). The panel was run on a Luminex 200 Instrument (Luminex Corporation, Austin, TX) according to the manufacturer's instructions. Murine serum levels of Angiopoietin-2, BAFF/BLyS/TNFSF13B, CCL2/JE/MCP-1, CCL3/MIP-1 alpha, CCL4/MIP-1 beta, CCL5/RANTES, CCL7/MCP-3/MARC, CCL11/Eotaxin, CCL12/MCP-5, CCL20/MIP-3 alpha, CCL21/6Ckine, CCL22/MDC, Chitinase 3-like 1, CXCL1/GRO alpha/KC/CINC-1, CXCL10/IP-10/CRG-2, CXCL12/S DF- 1 alpha, Dkk-1, FGF basic/FGF2/bFGF, GDF-15, GM-CSF, Granzyme B, IFN-gamma, IGF-I/IGF-1, IL-1 alpha/IL-1F1, IL-1 beta/IL-1F2, IL-2, IL-3, IL-4, IL-6, IL-7, IL-10, IL-13, IL-16, IL-17/IL-17A, IL-27, IL-33 M-CSF, MMP-3, MMP-8, MMP-12, Prolactin, TWEAK/TNFSF12, VEGF, and VEGFR2/KDR/Flk-1 were measured. Analyte values were reported in picograms per milliliter (pg/mL). […] Latent TGF-β was activated in samples using 1 N HCl and samples were neutralized with 1.2 N NaOH/0.5 M HEPES. Samples were assayed immediately after neutralization.

[3] = test system: e0771 orthotopic breast tumors in C57B1/6 mice; test: Orthotopic e0771 breast tumor model with 20 Gy whole-thorax irradiation
Method: C57B1/6 female mice (Taconic) were injected with 100,000 cells of murine breast cancer (e0771) in the right second mammary fat pad on day 0 of the experiment. […] Each group (n=3) also received a single whole-thorax x-ray irradiation dose of 20 Gy with shielding of other organs. One group (n=3) received no treatment and no radiation. The long axis and short axis of the tumors were measured using calipers and recorded twice a week. On day 18 all mice were euthanized at a humane endpoint, which was defined by 20% weight loss and/or a tumor volume of 2000 mm^3 (˜10% of body weight). Organs and tumors were harvested from the mice and 600 μL of blood was collected via cardiac puncture for serum cytokine analysis. Once tumors were extracted, they were weighed and measured to determine final volume and weight. Pulse oximeter readings were taken initially before radiation treatment and before sacrifice 9 days post-radiation (MouseSTAT Jr. Pulse Oximeter, Kent Scientific). When mice were under anesthesia the sensor of the MouseSTAT Jr. was placed on the hind right paw for 30 seconds. The highest and lowest values shown by the pulse oximeter during this time were recorded and then averaged together. The mean of all the averages per treatment group was then calculated.

[4] = test system: C57B1/6 mice; test: Radiation pneumonitis after whole-thorax x-ray irradiation, H&E of lung, wild-type mice; format: in vivo, mouse
Method: However, before embarking on the planned experiment, we decided to perform a preliminary, short-term treatment feasibility experiment to ensure some mouse survival after 20 Gy of thoracic irradiation (FIG. 1B). The preliminary experiment was performed with WT and DR5-null mice that were irradiated with 20 Gy, and this was followed by either weekly doses of TIC10/ONC201 (100 mg/kg for total of two doses) or twice a week doses of TLY012 (10 mg/kg for total of four doses) for 2 weeks.
as §1

[5] = test system: TRAIL-/- mice; test: Radiation pneumonitis after whole-thorax x-ray irradiation, H&E of lung, TRAIL-null mice; format: in vivo, mouse; conditions: TRAIL-/- male or female mice, 20 Gy thoracic irradiation, two weeks treatment, FIG. 2A, B
Method: as §1, with “In order to determine the lethal dose of radiation for C57B1/6 mice, female C57B1/6 mice were treated with a single dose of whole-thorax irradiation of 25 Gy in a survival study where they were treated with either TLY012 or remained control (n=6/treatment) (FIG. 3C).” left out

[6] = test system: duodenum, liver or heart; test: H&E of duodenum, liver and heart of irradiated, treated mice; conditions: 20 Gy irradiated mice, 2 weeks treatment
Method: as §1, with “In order to determine the lethal dose of radiation for C57B1/6 mice, female C57B1/6 mice were treated with a single dose of whole-thorax irradiation of 25 Gy in a survival study where they were treated with either TLY012 or remained control (n=6/treatment) (FIG. 3C).” left out

[7] = irradiated rescued versus irradiated control lung tissues
[8] = normal or inflamed lung, treated versus irradiated control

Cc1ccccc1CN1C(=O)C2=C(CCN(Cc3ccccc3)C2)N2CCN=C12 [ONC201, reference compound]
NFkB [1, 7]: no differences | proliferation [1, 7]: no differences | DNA double strand break marker gamma-H2AX [1, 8]: no difference | T-cell infiltration (CD3-epsilon) [1, 8]: no difference | collagen in lungs ([1]; rescued lungs versus irradiated control): less collagen | FGF basic serum level [2]: increase | IGF1 serum level [2]: upregulated | effect on anti-tumor efficacy of radiation (tumor weight and volume) ([3]; 20 Gy on day 9, treatment days 9, 12, 16, sacrifice day 18, FIG. 6B, C): no evidence that ONC201, TLY012 or their combination reduced efficacy of treatment | oxygen saturation (pulse oximetry) ([3]; 9 days post-radiation, versus irradiated mice without further treatment, FIG. 6D): partially rescued | rescue from radiation induced pneumonitis ([3]; tumor-bearing mice, 20 Gy): more potent by TLY012 than with ONC201 | protection from pneumonitis ([4]; WT mice, 20 Gy thoracic irradiation, preliminary experiment, 2 weeks treatment, versus irradiated control, FIG. 1C): qualitative evidence of protection from pneumonitis | rescue from radiation-induced pneumonitis ([4]; irradiated C57B1/6 mice, FIG. 2): could rescue mice from radiation-induced pneumonitis | rescue from radiation pneumonitis [5]: did not | toxicities in duodenum, liver or heart [6]: No obvious toxicities
